Reference: the supplement of paper PMC7394473

Columns and labels:
Conditions in all cases: 72 h
U2OS [1] = experiment: drug GRADE (percent of response due to cell death) (% (0-100)); higher = more death-driven response
Description: (§1)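 U2OS cells treated with full dose titrations of drug; live and dead cells counted by STACK microscopy (mKate2 nuclei, SYTOX Green) at 72 h, biological triplicates. GR and FV dose responses were fitted with 4-parameter logistic models (GR lower bound -1). GRADE (0-100) is the rescaled angle of a linear fit of FV versus GR at doses with GR >= 0, giving the percentage of the response due to cell death.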

U2OS [2] = experiment: FV IC50 (concentration giving fractional viability 0.5); higher = less potent killing
Description: as §1

U2OS [3] = experiment: GRmin (fitted minimal GR value at highest effect) (GR value (dimensionless)); higher = less efficacious
Description: as §1

U2OS [4] = experiment: fractional viability (live cells / total cells); higher = less cell death
Description: (§2)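 U2OS::Nuc-mKate2 cells seeded in 96-well plates and treated with eight- to ten-point half-log or log dilutions of drug in the presence of 50 nM SYTOX Green. Live (mKate2+) and dead (SYTOX+) cells were counted by IncuCyte STACK live-cell microscopy at 72 h; biological triplicates. GR is the normalised growth-rate inhibition value (Hafner 2016; 1 = untreated growth, <0 = population shrinking). FV is live/(live+dead) cells, not normalised.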

U2OS [5] = experiment: GR50 (concentration giving GR = 0.5)
Description: as §1

U2OS [6] = experiment: normalized growth rate inhibition value (GR) relative to untreated cells (GR value (dimensionless, 1 = untreated growth)); higher = less growth inhibition
Description: as §2

Compound | drug GRADE (U2OS [1]) | FV IC50 (U2OS [2]) [nM] | GRmin (U2OS [3]) | fractional viability (U2OS [4]; 1 µM) | fractional viability (U2OS [4]; 10 µM) | GR50 (U2OS [5]) [µM] | normalized growth rate inhibition value (U2OS [6]; 1 µM) | normalized growth rate inhibition value (U2OS [6]; 10 µM) | fractional viability (U2OS [4]; 0.00100578 µM) | fractional viability (U2OS [4]; 0.00317827 µM) | fractional viability (U2OS [4]; 0.0100433 µM) | fractional viability (U2OS [4]; 0.0317369 µM) | fractional viability (U2OS [4]; 0.100289 µM) | fractional viability (U2OS [4]; 0.316912 µM) | fractional viability (U2OS [4]; 1.00144 µM) | fractional viability (U2OS [4]; 3.16456 µM) | normalized growth rate inhibition value (U2OS [6]; 0.00100578 µM) | normalized growth rate inhibition value (U2OS [6]; 0.00317827 µM) | normalized growth rate inhibition value (U2OS [6]; 0.0100433 µM) | normalized growth rate inhibition value (U2OS [6]; 0.0317369 µM) | also measured
COC(=O)c1ccc2c(c1)NC(=O)/C2=C(\Nc1ccc(N(C)C(=O)CN2CCN(C)CC2)cc1)c1ccccc1 [Bibf-1120] | 50.6 | 1480 | -0.805 | 0.758 | 0.00465 | 0.845 | 0.427 | -0.767 | – | – | – | – | – | – | – | – | – | – | – | – | fractional viability (U2OS [4]; 0.01 µM): 0.981; fractional viability (U2OS [4]; 0.0316 µM): 0.975; fractional viability (U2OS [4]; 0.1 µM): 0.974; fractional viability (U2OS [4]; 0.316 µM): 0.947; fractional viability (U2OS [4]; 3.16 µM): 0.092; fractional viability (U2OS [4]; 31.6 µM): 0.00201; normalized growth rate inhibition value (U2OS [6]; 0.01 µM): 1.08; normalized growth rate inhibition value (U2OS [6]; 0.0316 µM): 1.04; normalized growth rate inhibition value (U2OS [6]; 0.1 µM): 0.935; normalized growth rate inhibition value (U2OS [6]; 0.316 µM): 0.813; normalized growth rate inhibition value (U2OS [6]; 3.16 µM): -0.468; normalized growth rate inhibition value (U2OS [6]; 31.6 µM): -0.767
CC(C)C[C@H](NC(=O)[C@H](Cc1ccccc1)NC(=O)c1cnccn1)B(O)O [Bortezomib] | 17.4 | 29.4 | -0.899 | 0.00348 | 0.00121 | 0.0115 | -0.874 | -0.913 | – | – | – | – | – | – | – | – | – | – | – | – | fractional viability (U2OS [4]; 0.01 µM): 0.919; fractional viability (U2OS [4]; 0.0316 µM): 0.432; fractional viability (U2OS [4]; 0.1 µM): 0.00995; fractional viability (U2OS [4]; 0.316 µM): 0.00177; fractional viability (U2OS [4]; 3.16 µM): 0.00249; fractional viability (U2OS [4]; 31.6 µM): 0.000942; normalized growth rate inhibition value (U2OS [6]; 0.01 µM): 0.572; normalized growth rate inhibition value (U2OS [6]; 0.0316 µM): -0.293; normalized growth rate inhibition value (U2OS [6]; 0.1 µM): -0.811; normalized growth rate inhibition value (U2OS [6]; 0.316 µM): -0.912; normalized growth rate inhibition value (U2OS [6]; 3.16 µM): -0.887; normalized growth rate inhibition value (U2OS [6]; 31.6 µM): -0.902
Nc1cc(C(F)(F)F)c(-c2cc(N3CCOCC3)nc(N3CCOCC3)n2)cn1 [Buparlisib] | 15.2 | 4100 | -0.554 | – | 0.404 | 0.439 | – | -0.493 | 0.986 | 0.984 | 0.986 | 0.986 | 0.985 | 0.976 | 0.868 | 0.558 | 0.914 | 0.956 | 0.959 | 0.899 | normalized growth rate inhibition value (U2OS [6]; 0.100289 µM): 0.77; normalized growth rate inhibition value (U2OS [6]; 0.316912 µM): 0.704; normalized growth rate inhibition value (U2OS [6]; 1.00144 µM): 0.0802; normalized growth rate inhibition value (U2OS [6]; 3.16456 µM): -0.224
CC[C@@]1(O)C(=O)OCc2c1cc1n(c2=O)Cc2cc3ccccc3nc2-1 [Camptothecin] | 25.1 | 761 | -0.368 | 0.448 | – | 0.00513 | -0.211 | – | – | – | – | – | – | – | – | – | – | – | – | – | fractional viability (U2OS [4]; 0.001 µM): 0.969; fractional viability (U2OS [4]; 0.00316 µM): 0.949; fractional viability (U2OS [4]; 0.01 µM): 0.91; fractional viability (U2OS [4]; 0.0316 µM): 0.898; fractional viability (U2OS [4]; 0.1 µM): 0.869; fractional viability (U2OS [4]; 0.316 µM): 0.661; fractional viability (U2OS [4]; 3.16 µM): 0.213; normalized growth rate inhibition value (U2OS [6]; 0.001 µM): 0.83; normalized growth rate inhibition value (U2OS [6]; 0.00316 µM): 0.651; normalized growth rate inhibition value (U2OS [6]; 0.01 µM): 0.219; normalized growth rate inhibition value (U2OS [6]; 0.0316 µM): 0.0844; normalized growth rate inhibition value (U2OS [6]; 0.1 µM): 0.0979; normalized growth rate inhibition value (U2OS [6]; 0.316 µM): -0.0587; normalized growth rate inhibition value (U2OS [6]; 3.16 µM): -0.411
Cc1cc(Nc2ncc(Cl)c(Nc3ccccc3S(=O)(=O)C(C)C)n2)c(OC(C)C)cc1C1CCNCC1 [Ceritinib] | 7.14 | 5270 | – | – | 0 | 3.32 | – | -1 | 0.991 | 0.989 | 0.992 | 0.988 | 0.989 | 0.984 | 0.98 | 0.943 | 1.05 | 1.06 | 1.15 | 1.13 | normalized growth rate inhibition value (U2OS [6]; 0.100289 µM): 1.02; normalized growth rate inhibition value (U2OS [6]; 0.316912 µM): 0.964; normalized growth rate inhibition value (U2OS [6]; 1.00144 µM): 0.904; normalized growth rate inhibition value (U2OS [6]; 3.16456 µM): 0.588
CCc1cnn2c(NCc3ccc[n+]([O-])c3)cc(N3CCCC[C@H]3CCO)nc12 [Dinaciclib] | 3.29 | 8.07 | -0.376 | 0.406 | – | 0.00437 | -0.373 | – | – | – | – | – | – | – | – | – | – | – | – | – | fractional viability (U2OS [4]; 0.000100578 µM): 0.986; fractional viability (U2OS [4]; 0.000317827 µM): 0.983; fractional viability (U2OS [4]; 0.00100433 µM): 0.984; fractional viability (U2OS [4]; 0.00317369 µM): 0.972; fractional viability (U2OS [4]; 0.0100289 µM): 0.41; fractional viability (U2OS [4]; 0.0316912 µM): 0.32; fractional viability (U2OS [4]; 0.100144 µM): 0.339; fractional viability (U2OS [4]; 0.316456 µM): 0.35; normalized growth rate inhibition value (U2OS [6]; 0.000100578 µM): 0.892; normalized growth rate inhibition value (U2OS [6]; 0.000317827 µM): 0.802; normalized growth rate inhibition value (U2OS [6]; 0.00100433 µM): 0.876; normalized growth rate inhibition value (U2OS [6]; 0.00317369 µM): 0.756; normalized growth rate inhibition value (U2OS [6]; 0.0100289 µM): -0.288; normalized growth rate inhibition value (U2OS [6]; 0.0316912 µM): -0.406; normalized growth rate inhibition value (U2OS [6]; 0.100144 µM): -0.368; normalized growth rate inhibition value (U2OS [6]; 0.316456 µM): -0.358
CC(=O)O[C@@]12CO[C@@H]1C[C@H](O)[C@@]1(C)C(=O)[C@H](O)C3=C(C)[C@@H](OC(=O)[C@H](O)[C@@H](NC(=O)OC(C)(C)C)c4ccccc4)C[C@@](O)([C@@H](OC(=O)c4ccccc4)[C@H]21)C3(C)C [Docetaxel] | 69.6 | 4.77 | -0.193 | – | 0.255 | 0.000853 | – | -0.164 | 0.707 | 0.588 | 0.41 | 0.413 | 0.323 | 0.351 | 0.252 | 0.238 | 0.339 | 0.223 | 0.0565 | -0.0266 | normalized growth rate inhibition value (U2OS [6]; 0.100289 µM): -0.14; normalized growth rate inhibition value (U2OS [6]; 0.316912 µM): -0.174; normalized growth rate inhibition value (U2OS [6]; 1.00144 µM): -0.245; normalized growth rate inhibition value (U2OS [6]; 3.16456 µM): -0.251
COc1cccc2c1C(=O)c1c(O)c3c(c(O)c1C2=O)C[C@@](O)(C(=O)CO)C[C@@H]3O[C@H]1C[C@H](N)[C@H](O)[C@H](C)O1 [Doxorubicin] | 3.78 | 2590 | -0.576 | – | 0 | 0.0332 | – | -1 | 0.987 | 0.99 | 0.989 | 0.971 | 0.967 | 0.978 | 0.851 | 0.113 | 0.879 | 1.06 | 0.832 | 0.368 | normalized growth rate inhibition value (U2OS [6]; 0.100289 µM): 0.0816; normalized growth rate inhibition value (U2OS [6]; 0.316912 µM): 0.0197; normalized growth rate inhibition value (U2OS [6]; 1.00144 µM): -0.0749; normalized growth rate inhibition value (U2OS [6]; 3.16456 µM): -0.501
